Measurements published in paper PMC10138714, “Evaluation of Some Safety Parameters of Dual Histamine H3 and Sigma-2 Receptor Ligands with Anti-Obesity Potential” (International Journal of Molecular Sciences, 2023).

Tests used:
sigma-2 receptors = molecular target: sigma-2 receptors; design: method as in earlier work; conditions: cited from earlier work
H3R = tested on: H3R; design: method as in PMID 34908391; conditions: cited from earlier work; for H3/σ1 / H3/σ2: ratio of Ki values
mice [1] = test: Motor coordination in the chimney test; type: in vivo, male Albino Swiss (CD-1) mice; conditions: chimney test, 30 min after injection, n = 8
Experimental: (§1) Blood pressure measurement and ECG were performed on male Wistar rats weighing 200–220 g (six months old). Locomotor activity and chimney tests were performed on adult male Albino Swiss (CD-1) mice weighing 18–22 g ([…]). The animals were obtained from an accredited animal house at the Faculty of Pharmacy, Jagiellonian University Medical College, Krakow, Poland. The experimental groups consisted of 6–8 animals. The animals were housed in constant temperature (22–24 °C) and humidity (40–60%) facilities, exposed to 12:12 h light/dark cycles, and were maintained on a standard pellet diet with tap water available ad libitum. Rats and mice were housed in pairs or 8 animals per home cage, respectively.
The effect of tested compounds on motor impairment were quantified with the chimney test of Boissier et al. (1960). The mice were trained before the test, and only the animals able to get out of the chimney within 1 min were used at the experimental stage. The selected mice were placed in a 25 cm-long and 2.5 cm in diameter […] tube, which was reversed so that the mice could leave it only by climbing up backward until they reached the other end. The test was performed 30 min after injection (i.p.) of the examined compounds. Motor impairment was indicated by the inability of the animals to climb up backwards in the transparent tube within 60 s.

rats = test: Heart rate and ECG intervals in rats; type: in vivo, male Wistar rats; conditions: 10 mg/kg i.p.
Experimental: as §1
In vivo electrocardiographic measurements were performed using an ASPEL ASCARD B5 apparatus, standard lead II, and a paper speed of 50 mm/s. The study was carried out after a single administration of the test compounds (10 mg/kg i.p.). […] The following parameters were then calculated and analyzed: duration of PQ, QT, QRS, RR intervals, and heart rate.

normotensive rats = test: Blood pressure in anesthetized normotensive rats (carotid artery cannulation); type: in vivo, male Wistar rats
Experimental: as §1
Rats were anesthetized with thiopental (70 mg/kg) via i.p. injection. The left carotid artery was cannulated with polyethylene tubing filled with a heparin solution in saline to facilitate pressure measurements using a PowerLab Apparatus (ADInstruments, Sydney, Australia). After a 20 min stabilization period, the test compounds were administered i.p. at a dose of 10 mg/kg b.w. in a constant volume of 1 mL/kg b.w. Blood pressure was recorded immediately before administration and 5, 10, 15, 20, 30, 40, 50, and 60 min after the administration of the test compound [47].

[2] = molecular target: T1, human ERG potassium channel (Kv11.1) (Homo sapiens, UniProt Q12809); test: Whole-cell automated patch clamp (QPatch16X), inhibition of hERG currents; type: cell-based; conditions: for IC50: CHO cells stably expressing human ERG, whole-cell, mean of three experiments, read-out: Mean IC50 ± SEM, inhibition of hERG currents; for Inhibition of hERG compared with verapamil: relative to reference compound verapamil
T1 construct: expressed in transfected cells
Experimental: Electrophysiology experiments were performed on a QPatch16X automatic patch clamp platform (Sophion Bioscience, Ballerup, Denmark). Chinese hamster ovary (CHO) cells stably expressing the human ERG potassium channel (Kv11.1) were cultured using standard procedures. On the day of the experiment, cells were collected from the culture flask using TrypLE Express solution (Life Technologies, Thermo Fisher Scientific, Carlsbad, California, United States) and resuspended in EX-CELL ACF CHO serum-free medium (Merck KGaA, Sigma-Aldrich, Darmstadt, Germany), supplemented with 25 mM HEPES, 100 U/mL penicillin/streptomycin, and 0.04 mg/mL soybean trypsin inhibitor (all components from Sigma Aldrich).
The cells were placed in the lidless microtube and located onboard the automated electrophysiology instrument, where they were automatically relocated to a built-in centrifuge.
Cells were transferred to pipetting wells of single-use 16-channel planar patch chip plates (QPlate 16X, Sophion Bioscience, Ballerup, Denmark) and gigaseals were formed upon application of a combined suction/voltage protocol in a standard protocol supplied by Sophion Bioscience for CHO cells. Once the whole-cell mode was obtained, the cells were kept in a holding potential of -90 mV between the programmed stimulation protocols.
Whole-cell potassium currents were measured in response to repeatedly executed voltage protocols constituted of the following steps: brief clamping to −50 mV (200 ms), subsequent depolarization to 20 mV for 4000 ms, and final repolarization to −50 mV when the outward tail current was measured for 4000 ms.
The average current peak values determined in the presence of particular concentrations of the compound tested were subjected to a sigmoidal dose–response curve fitting, where the bottom plateau parameter was constrained to 0. The IC50 values were then calculated from the obtained sigmoidal dose–response curves. Data were analyzed using QPatch Assay Software (v5.0, Sophion Bioscience, Ballerup, Denmark) and represent the mean of three experiments carried out on distinct cells.

mice [3] = test: Locomotor activity in mice (activity cages, photobeam breaks); type: in vivo, male Albino Swiss (CD-1) mice; conditions: vs vehicle group
Experimental: as §1
Locomotor activity was individually recorded for each animal using specifically designed activity cages made of clear Perspex (40 cm × 40 cm × 31 cm, Activity Cage 7441, Ugo Basile, Italy). The cages were supplied with I.R. horizontal beam emitters connected to a counter that records the light-beam interruptions. The compounds suspensions were administered as i.p. injections 30 min before testing. Control animals received injections of vehicles. Each mouse was placed in a cage for a 30 min habituation period. After that time, the number of breaks in the photobeams was measured for 5 min, which is the same time as the observation period used in other tests.

[4] = tested on: rats fed a palatable diet; test: Plasma AlaT, AspaT, gGT and ALP activity after repeated administration in rats fed a palatable diet; type: in vivo; conditions: 10 mg/kg b.w. i.p. repeated; for Plasma AlaT activity: vs vehicle control fed palatable feed
Experimental: Standard diet ( 8% fats, 67% carbohydrates, and 25% proteins) contained 100 g feed—280 kcal. Rats fed a palatable diet had access to a diet consisting of milk chocolate with nuts, cheese, salted peanuts, and 7% condensed milk and simultaneously to standard feed (Labofeed B, Morawski Manufacturer Feed, Kcynia, Poland) for 4 weeks. The feeding was not in any way forced, and rats decided themselves when, what, and how much to eat. A palatable diet contained 100 g of peanuts—612 kcal; 100 mL of condensed milk—131 kcal; 100 g of milk chocolate—529 kcal; and 100 g of cheese—325 kcal.
The study evaluating the activities of alanine aminotransferase (AlaT), aspartate aminotransferase (AspaT), gamma-glutamyl transpeptidases (gGT), and alkaline phosphatase (ALP) was carried out after completing the excessive eating model experiments described in our previous work. Compounds were administered for twenty-eight days at a dose of 10 mg/kg b.w./day. On the 31st day of the experiment, 20 min after i.p. administration of heparin (5000 units/rat) and thiopental (70 mg/kg b.w.), blood was collected from the left carotid artery and then centrifuged at 600× g (15 min, 4 °C) in order to obtain the plasma. To determine the activities of AlaT, AapaT, gGT, and ALP in the plasma samples, a standard enzymatic spectrophotometric test (Biomaxima S.A., Lublin, Poland) was used.

σ1R = molecular target: σ1R; design: method as in PMID 34908391; conditions: cited from earlier work; for σ1/σ2: ratio of Ki values
σ2R = molecular target: σ2R; design: method as in PMID 34908391; conditions: cited from earlier work
[5] = single i.p. 10 mg/kg b.w., 30–60 min after administration

T1 sequence (Q12809 whole entry): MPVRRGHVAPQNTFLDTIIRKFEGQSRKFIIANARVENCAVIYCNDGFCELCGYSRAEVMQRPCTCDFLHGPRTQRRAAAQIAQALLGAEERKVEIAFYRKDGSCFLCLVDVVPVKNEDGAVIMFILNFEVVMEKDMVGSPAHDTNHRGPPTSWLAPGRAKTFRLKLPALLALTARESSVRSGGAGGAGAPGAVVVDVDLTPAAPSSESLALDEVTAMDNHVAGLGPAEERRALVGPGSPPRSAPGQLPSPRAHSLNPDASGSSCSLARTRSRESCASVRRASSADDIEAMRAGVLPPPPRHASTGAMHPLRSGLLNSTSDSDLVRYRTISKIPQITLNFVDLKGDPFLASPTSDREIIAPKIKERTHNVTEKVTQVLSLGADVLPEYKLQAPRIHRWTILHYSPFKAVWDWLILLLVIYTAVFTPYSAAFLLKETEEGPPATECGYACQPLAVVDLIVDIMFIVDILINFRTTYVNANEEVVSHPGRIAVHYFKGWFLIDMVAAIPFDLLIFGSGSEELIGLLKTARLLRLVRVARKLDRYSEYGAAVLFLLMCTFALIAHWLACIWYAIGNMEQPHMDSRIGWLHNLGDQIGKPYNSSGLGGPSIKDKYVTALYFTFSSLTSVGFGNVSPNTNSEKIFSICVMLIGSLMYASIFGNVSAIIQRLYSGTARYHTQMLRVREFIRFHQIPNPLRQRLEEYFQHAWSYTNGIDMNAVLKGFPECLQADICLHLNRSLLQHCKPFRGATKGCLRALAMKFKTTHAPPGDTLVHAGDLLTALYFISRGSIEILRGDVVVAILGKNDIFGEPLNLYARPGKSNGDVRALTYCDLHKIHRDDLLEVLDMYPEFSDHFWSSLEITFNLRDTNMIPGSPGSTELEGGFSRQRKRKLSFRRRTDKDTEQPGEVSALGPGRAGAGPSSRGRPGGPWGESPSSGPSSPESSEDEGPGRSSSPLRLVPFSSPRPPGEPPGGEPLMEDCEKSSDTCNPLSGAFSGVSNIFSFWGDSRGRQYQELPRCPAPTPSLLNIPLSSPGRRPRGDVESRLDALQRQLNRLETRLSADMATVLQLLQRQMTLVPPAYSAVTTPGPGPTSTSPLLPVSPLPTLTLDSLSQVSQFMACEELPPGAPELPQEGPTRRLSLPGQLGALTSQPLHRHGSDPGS

Row | SMILES | H3/σ1 (H3R) | H3/σ2 (H3R) | % of Mice Impaired (mice [1]; 10 mg/kg i.p.) [%] | % of Mice Impaired (mice [1]; 20 mg/kg i.p.) [%] | % of Mice Impaired (mice [1]; 30 mg/kg i.p.) [%] | Heart rate (rats; time 0 min) [beats/min] | PQ (rats; time 0 min) [ms] | QRS (rats; time 0 min) [ms] | QT (rats; time 0 min) [ms] | Heart rate (rats; time 15 min) [beats/min] | PQ (rats; time 15 min) [ms] | QRS (rats; time 15 min) [ms] | QT (rats; time 15 min) [ms] | Heart rate (rats; time 30 min) [beats/min] | PQ (rats; time 30 min) [ms] | QRS (rats; time 30 min) [ms] | QT (rats; time 30 min) [ms] | Heart rate (rats; time 45 min) [beats/min] | PQ (rats; time 45 min) [ms] | QRS (rats; time 45 min) [ms] | further results
1 | Clc1ccc(CCCOCCCN2CCCCC2)cc1 [Pitolisant] | – | – | – | – | – | – | – | – | – | – | – | – | – | – | – | – | – | – | – | – | Ki (sigma-2 receptors): 6.5 nM
2 | O=C(c1ccccc1)c1ccc(OCCCN2CCN(c3ccncc3)CC2)cc1 [KSK-63] | 0.004 | 0.11 | 0 | 0 | 0 | 393.8 ± 34.8 | 57.5 ± 2.5 | 20.0 ± 0.0 | 63.3 ± 5.1 | 362.8 ± 38.0 | 55.0 ± 5.0 | 20.0 ± 0.0 | 64.4 ± 2.6 | 365.2 ± 34.8 | 58.75 ± 1.3 | 20.0 ± 0.0 | 65.3 ± 4.7 | 344.3 ± 30.8 | 55.0 ± 5.0 | 20 ± 0.0 | QT (rats; time 45 min): 62.1 ± 1.6 ms; Heart rate (rats; time 60 min): 344.3 ± 30.8 beats/min; PQ (rats; time 60 min): 62.5 ± 2.1 ms; QRS (rats; time 60 min): 20.0 ± 0.0 ms; QT (rats; time 60 min): 65.2 ± 3.6 ms; Increase of systolic blood pressure (normotensive rats; single i.p. 10 mg/kg b.w., 5, 10 and 20 min after administration): 16–22 mmHg; IC50 [2]: 570 ± 50 nM; Inhibition of hERG compared with verapamil [2]: close to the reference compound; Locomotor activity (mice [3]; single i.p. 30 mg/kg b.w.): significant decrease; Plasma AspaT activity ([4]; relative to both control groups (standard or palatable feed)): higher AspaT activity; Plasma ALP activity ([4]; vs control group fed standard feed): greater ALP activity; Plasma gGT activity ([4]; vs palatable feed-fed control group): statistically lower gGT activity; Plasma AlaT activity [4]: lower; Ki (σ1R): 726 nM; σ1/σ2 (σ1R): 24.83; Ki (σ2R): 29.2 nM
3 | CCC(=O)c1ccc(OCCCCCCCCN2CCN(c3ccncc3)CC2)cc1 [KSK-74] | 0.14 | 0.59 | 0 | 12.5 | 12.5 | 381.8 ± 19.9 | 56.3 ± 4.1 | 20.0 ± 0.0 | 62.5 ± 4.3 | 356.3 ± 18.9 | 53.8 ± 4.1 | 20.0 ± 0.0 | 60.0 ± 5.0 | 355.3 ± 32.2 | 56.3 ± 2.2 | 20.0 ± 0.0 | 61.3 ± 6.5 | 364.6 ± 18.1 | 57.5 ± 2.5 | 20.0 ± 0.0 | Ki (H3R): 38.9 nM; QT (rats; time 45 min): 65.0 ± 6.1 ms; Heart rate (rats; time 60 min): 370.8 ± 23.9 beats/min; PQ (rats; time 60 min): 55.0 ± 5.0 ms; QRS (rats; time 60 min): 20.0 ± 0.0 ms; QT (rats; time 60 min): 62.5 ± 8.3 ms; Decrease of diastolic blood pressure (normotensive rats; [5]): 10–13 mmHg; Decrease of systolic blood pressure (normotensive rats; [5]): approx. 12 mmHg; IC50 [2]: 3400 ± 289 nM; Inhibition of hERG compared with verapamil [2]: almost seven times weaker; Locomotor activity (mice [3]; single i.p. 10 mg/kg b.w., 30 min before test): significantly increased; Locomotor activity (mice [3]; single i.p. 30 mg/kg b.w.): No significant changes; Plasma AlaT activity [4]: lower; Plasma ALP activity ([4]; vs vehicle group with palatable feed): lower plasma ALP activity; Ki (σ1R): 274 nM; σ1/σ2 (σ1R): 4.16; Ki (σ2R): 65.9 nM
